Molecules are shown by their SMILES.

Consider six molecules from paper PMC11558673, “Exploring LCST- and UCST-like Behavior of Branched Molecules Bearing Repeat Units of Elastin-like Peptides as Side Components” (Biomacromolecules, 2024).

Holding throughout (assay type): physicochemical
A short description of data set [1]: Turbidity measurement (LCST/UCST-like behavior, Tt). The conditions noted are these: for Tt for the LCST-like behavior: Tt = temperature at half the maximum turbidity, mean ± standard error, at least three measurements; for Temperature-responsive behavior in turbidity measurement: heating to 90 °C and cooling to 5 °C at 1 °C/min, turbidity at 400 nm. As to the method: Temperature-responsive properties (LCST/UCST-like behavior and its reversibility) were investigated by using a JASCO V-660 spectral photometer (JASCO, Tokyo, Japan). Each peptide was dissolved in phosphate buffer containing NaCl (pH 7.4, 27.4 mM Na2HPO4, 17.8 mM NaH2PO4, 1 M NaCl). NaCl in this concentration is used as an additive to trigger an LCST-like behavior for the inverse transition cycling (a method to purify a protein exploiting the LCST-like behavior of ELPs).[9] The turbidity at 400 nm of each branched ELP solution was traced while increasing or decreasing the temperature at a rate of 0.5 °C/min, except for samples at 0.5 mM, which were traced at 1 °C/min for heating–cooling cycle measurements. For the samples at 0.5 mM, after heating to 90 °C or cooling to 5 °C, the samples were vortexed to eliminate any possible concentration gradients caused by peptide precipitation and kept at 90 or 5 °C for 30 min before starting the subsequent cooling or heating, respectively. The transition temperature (Tt) for LCST was defined as a temperature at which the turbidity of the solution reaches half the maximum value while increasing the temperature. Measurements were performed at least three times.

Data set [2] in a line: DLS measurement of particle size distribution. The conditions noted are these: peptide 0.5 mM, filtered phosphate buffer pH 7.4 with 1 M NaCl. On the procedure: The particle size distribution of branched ELPs was analyzed in filtered phosphate buffer (pH 7.4, 27.4 mM Na2HPO4, 17.8 mM NaH2PO4) containing 1 M NaCl using DLS with a Zetasizer Nano ZS (Malvern Instruments, Worcestershire, U.K.) DLS analysis was performed at temperatures ranging from 15 to 55 °C with 10 °C intervals for [α-E(F1)]n-F1 and [γ-E(F1)]n-F1 under conditions where the ELPs have Tt values around 30 °C for LCST-like behavior (n = 4, 2.5 mM; n = 5, 1 mM; n = 6, 0.5 mM). Additionally, a solution of [α-E(F1)]5-F1 at 0.5 mM was analyzed at 20, 60, and 90 °C. The measurement duration was selected automatically. The parameter data set “protein” (data set: refractive index, 1.450; absorption, 0.001) was used as the material parameter, and the parameter data set “water” (data set: refractive index, 1.330; viscosity, 0.8872) was chosen as the dispersant parameter. Attenuation was selected automatically.

Another data set can be described thus: ThT fluorescence assay. The conditions noted are these: peptide 1 mM; 50 μM ThT; phosphate buffer pH 7.4 with 1 M NaCl; excitation 446 nm, emission 483 nm. On the procedure:
A ThT fluorescence assay was conducted using an FP-8500 fluorescence spectrometer (JASCO Co.). The phosphate buffer solutions (pH 7.4, 27.4 mM Na2HPO4, 17.8 mM NaH2PO4) of [α-E(F1)]5-F1 (1 or 0.5 mM) containing 1 M NaCl and 50 μM ThT were prepared. The temperature change rates were the same as those in the turbidity measurements. Using an excitation wavelength of 446 nm, the ThT fluorescence intensities at 483 nm upon temperature changes or over time were recorded.

A short description of data set [3]: CD measurement (aggregation observed in sample). The conditions noted are these: 0.1 mg/mL in filtered phosphate buffer pH 7.4 without NaCl; 10 to 90 °C. On the procedure: CD measurements were carried out using a J-725 spectropolarimeter (JASCO) for [α-E(F1)]5-F1 and [γ-E(F1)]5-F1 in a cuvette with a path length of 1.0 mm. Each peptide was dissolved in filtered phosphate buffer (pH 7.4, 27.4 mM Na2HPO4, and 17.8 mM NaH2PO4) at a concentration of 0.1 mg/mL. […] Spectra were obtained from 190 to 260 nm at temperatures ranging from 10 to 90 °C with 20 °C intervals. Each measurement was performed after 3 min of equilibration at the target temperature. After subtracting the background spectra, Savitzky–Golay filters were applied to smooth all spectra.

Setting [4] is: peptide 1.5 mM, turbidity at 400 nm on heating 0.5 °C/min, phosphate buffer pH 7.4 with 1 M NaCl.
Setting [5] is: peptide 2.5 mM, turbidity at 400 nm on heating 0.5 °C/min, phosphate buffer pH 7.4 with 1 M NaCl.
The mark [6] stands for this setting: peptide 4 mM, turbidity at 400 nm on heating 0.5 °C/min, phosphate buffer pH 7.4 (27.4 mM Na2HPO4, 17.8 mM NaH2PO4) with 1 M NaCl.
[7] abbreviates: peptide 0.5 mM, phosphate buffer pH 7.4 with 1 M NaCl.
Where [8] appears, read: peptide 0.5 mM, turbidity at 400 nm on heating (1 °C/min for heating-cooling cycle measurements), phosphate buffer pH 7.4 with 1 M NaCl.
Where [9] appears, read: peptide 1 mM, turbidity at 400 nm on heating 0.5 °C/min, phosphate buffer pH 7.4 with 1 M NaCl.

As for `CC(C)[C@H](NC(=O)CNC(=O)[C@@H]1CCCN1C(=O)[C@H](Cc1ccccc1)NC(=O)CC[C@H](NC(=O)[C@H](CCC(=O)N[C@@H](Cc1ccccc1)C(=O)N1CCC[C@H]1C(=O)NCC(=O)N[C@H](C(=O)NCC(N)=O)C(C)C)NC(=O)[C@@H](N)CCC(=O)N[C@@H](Cc1ccccc1)C(=O)N1CCC[C@H]1C(=O)NCC(=O)N[C@H](C(=O)NCC(N)=O)C(C)C)C(=O)N[C@@H](CCC(=O)N[C@@H](Cc1ccccc1)C(=O)N1CCC[C@H]1C(=O)NCC(=O)N[C@H](C(=O)NCC(N)=O)C(C)C)C(=O)N[C@@H](Cc1ccccc1)C(=O)N1CCC[C@H]1C(=O)NCC(=O)N[C@H](C(=O)NCC(N)=O)C(C)C)C(=O)NCC(N)=O` [[α-E(F1)]4-F1], the “Tt for the LCST-like behavior” value in data set [1] (setting [4]) was 47.04 ± 0.81 °C; in data set [1] (setting [5]), 29.98 ± 1.82 °C; in data set [1] (setting [6]), 21.12 ± 1.68 °C.
As to `CC(C)[C@H](NC(=O)CNC(=O)[C@@H]1CCCN1C(=O)[C@H](Cc1ccccc1)NC(=O)CC[C@H](NC(=O)[C@H](CCC(=O)N[C@@H](Cc1ccccc1)C(=O)N1CCC[C@H]1C(=O)NCC(=O)N[C@H](C(=O)NCC(N)=O)C(C)C)NC(=O)[C@H](CCC(=O)N[C@@H](Cc1ccccc1)C(=O)N1CCC[C@H]1C(=O)NCC(=O)N[C@H](C(=O)NCC(N)=O)C(C)C)NC(=O)[C@@H](N)CCC(=O)N[C@@H](Cc1ccccc1)C(=O)N1CCC[C@H]1C(=O)NCC(=O)N[C@H](C(=O)NCC(N)=O)C(C)C)C(=O)N[C@@H](CCC(=O)N[C@@H](Cc1ccccc1)C(=O)N1CCC[C@H]1C(=O)NCC(=O)N[C@H](C(=O)NCC(N)=O)C(C)C)C(=O)N[C@@H](Cc1ccccc1)C(=O)N1CCC[C@H]1C(=O)NCC(=O)N[C@H](C(=O)NCC(N)=O)C(C)C)C(=O)NCC(N)=O` [[α-E(F1)]5-F1], in data set [1] (setting [7]), the “Temperature-responsive behavior in turbidity measurement” value was “both LCST- and UCST-like behavior”. For the same molecule, the “Tt for the LCST-like behavior” value in data set [1] (setting [8]) worked out at 56.92 ± 1.28 °C; in data set [1] (setting [5]), 13.86 ± 0.33 °C. The “Solubility at 90 °C” value in data set [1] (peptide 1 mM and 2.5 mM at 90 °C, phosphate buffer pH 7.4 with 1 M NaCl, images of measurement cell) is on record as “insoluble”. In addition, the “Hydrodynamic diameter at 20, 60 and 90 °C” value in data set [2] was “larger hydrodynamic diameters at 60 °C compared to the ones at 20 or 90 °C”. Further, the “ThT fluorescence intensity upon heating” value in the data set “ThT fluorescence assay” is recorded as “sharp increase in fluorescence intensity around Tt”. In data set [3], the “Aggregation behavior in CD sample” value was “apparent aggregation behavior was not observed”.
Regarding `CC(C)[C@H](NC(=O)CNC(=O)[C@@H]1CCCN1C(=O)[C@H](Cc1ccccc1)NC(=O)CC[C@H](NC(=O)[C@H](CCC(=O)N[C@@H](Cc1ccccc1)C(=O)N1CCC[C@H]1C(=O)NCC(=O)N[C@H](C(=O)NCC(N)=O)C(C)C)NC(=O)[C@H](CCC(=O)N[C@@H](Cc1ccccc1)C(=O)N1CCC[C@H]1C(=O)NCC(=O)N[C@H](C(=O)NCC(N)=O)C(C)C)NC(=O)[C@@H](N)CCC(=O)N[C@@H](Cc1ccccc1)C(=O)N1CCC[C@H]1C(=O)NCC(=O)N[C@H](C(=O)NCC(N)=O)C(C)C)C(=O)N[C@@H](CCC(=O)N[C@@H](Cc1ccccc1)C(=O)N1CCC[C@H]1C(=O)NCC(=O)N[C@H](C(=O)NCC(N)=O)C(C)C)C(=O)N[C@@H](CCC(=O)N[C@@H](Cc1ccccc1)C(=O)N1CCC[C@H]1C(=O)NCC(=O)N[C@H](C(=O)NCC(N)=O)C(C)C)C(=O)N[C@@H](Cc1ccccc1)C(=O)N1CCC[C@H]1C(=O)NCC(=O)N[C@H](C(=O)NCC(N)=O)C(C)C)C(=O)NCC(N)=O` [[α-E(F1)]6-F1], the “Tt for the LCST-like behavior” value in data set [1] (setting [8]) is 33.80 ± 0.38 °C; in data set [1] (setting [9]) it was 19.76 ± 0.97 °C; in data set [1] (setting [5]) it was 7.68 ± 0.80 °C.
For `CC(C)[C@H](NC(=O)CNC(=O)[C@@H]1CCCN1C(=O)[C@H](Cc1ccccc1)NC(=O)CC[C@H](NC(=O)CC[C@H](NC(=O)CC[C@H](NC(=O)CC[C@H](N)C(=O)N[C@@H](Cc1ccccc1)C(=O)N1CCC[C@H]1C(=O)NCC(=O)N[C@H](C(=O)NCC(N)=O)C(C)C)C(=O)N[C@@H](Cc1ccccc1)C(=O)N1CCC[C@H]1C(=O)NCC(=O)N[C@H](C(=O)NCC(N)=O)C(C)C)C(=O)N[C@@H](Cc1ccccc1)C(=O)N1CCC[C@H]1C(=O)NCC(=O)N[C@H](C(=O)NCC(N)=O)C(C)C)C(=O)N[C@@H](Cc1ccccc1)C(=O)N1CCC[C@H]1C(=O)NCC(=O)N[C@H](C(=O)NCC(N)=O)C(C)C)C(=O)NCC(N)=O` [[γ-E(F1)]4-F1], the “Tt for the LCST-like behavior” value turned out to be 46.52 ± 0.67 °C in data set [1] (setting [4]), 30.25 ± 0.23 °C in data set [1] (setting [5]) and 20.75 ± 0.47 °C in data set [1] (setting [6]).
Turning to `CC(C)[C@H](NC(=O)CNC(=O)[C@@H]1CCCN1C(=O)[C@H](Cc1ccccc1)NC(=O)CC[C@H](NC(=O)CC[C@H](NC(=O)CC[C@H](NC(=O)CC[C@H](NC(=O)CC[C@H](N)C(=O)N[C@@H](Cc1ccccc1)C(=O)N1CCC[C@H]1C(=O)NCC(=O)N[C@H](C(=O)NCC(N)=O)C(C)C)C(=O)N[C@@H](Cc1ccccc1)C(=O)N1CCC[C@H]1C(=O)NCC(=O)N[C@H](C(=O)NCC(N)=O)C(C)C)C(=O)N[C@@H](Cc1ccccc1)C(=O)N1CCC[C@H]1C(=O)NCC(=O)N[C@H](C(=O)NCC(N)=O)C(C)C)C(=O)N[C@@H](Cc1ccccc1)C(=O)N1CCC[C@H]1C(=O)NCC(=O)N[C@H](C(=O)NCC(N)=O)C(C)C)C(=O)N[C@@H](Cc1ccccc1)C(=O)N1CCC[C@H]1C(=O)NCC(=O)N[C@H](C(=O)NCC(N)=O)C(C)C)C(=O)NCC(N)=O` [[γ-E(F1)]5-F1], the “Temperature-responsive behavior in turbidity measurement” value in data set [1] (setting [7]) was “both LCST- and UCST-like behavior”. The “Tt for the LCST-like behavior” value in data set [1] (setting [8]) stood at 61.87 ± 0.60 °C; in data set [1] (setting [9]), 34.73 ± 0.52 °C; in data set [1] (setting [5]), 17.38 ± 0.10 °C. The “Aggregation behavior in CD sample” value in data set [3] is recorded as “apparent aggregation behavior was not observed”.
For the molecule `CC(C)[C@H](NC(=O)CNC(=O)[C@@H]1CCCN1C(=O)[C@H](Cc1ccccc1)NC(=O)CC[C@H](NC(=O)CC[C@H](NC(=O)CC[C@H](NC(=O)CC[C@H](NC(=O)CC[C@H](NC(=O)CC[C@H](N)C(=O)N[C@@H](Cc1ccccc1)C(=O)N1CCC[C@H]1C(=O)NCC(=O)N[C@H](C(=O)NCC(N)=O)C(C)C)C(=O)N[C@@H](Cc1ccccc1)C(=O)N1CCC[C@H]1C(=O)NCC(=O)N[C@H](C(=O)NCC(N)=O)C(C)C)C(=O)N[C@@H](Cc1ccccc1)C(=O)N1CCC[C@H]1C(=O)NCC(=O)N[C@H](C(=O)NCC(N)=O)C(C)C)C(=O)N[C@@H](Cc1ccccc1)C(=O)N1CCC[C@H]1C(=O)NCC(=O)N[C@H](C(=O)NCC(N)=O)C(C)C)C(=O)N[C@@H](Cc1ccccc1)C(=O)N1CCC[C@H]1C(=O)NCC(=O)N[C@H](C(=O)NCC(N)=O)C(C)C)C(=O)N[C@@H](Cc1ccccc1)C(=O)N1CCC[C@H]1C(=O)NCC(=O)N[C@H](C(=O)NCC(N)=O)C(C)C)C(=O)NCC(N)=O` [[γ-E(F1)]6-F1], the “Tt for the LCST-like behavior” value was 34.56 ± 0.48 °C in data set [1] (setting [8]), 23.66 ± 0.06 °C in data set [1] (setting [9]) and 8.63 ± 0.31 °C in data set [1] (setting [5]).
